Assay results: patent US20250082633A1, “COMPOUNDS AND METHODS FOR MODULATING SPLICING” (REMIX THERAPEUTICS INC., priority 2021, published 2025)
Where two headings read alike, the source gives them in different places.

What was measured:
[1] = system: HiBiT-tagged MYB protein in K562 cells; assay: HiBit protein abundance assay, MYB; type: cell-based, human; settings: K562 HiBiT-modified cells, 24 hours, luminescence
Procedure: (§1) Compounds described herein were used to screen for effects on quantitative protein abundance using a HiBit assay system (Promega). Quantitative protein abundance was determined by measuring the protein levels of HiBit-tagged protein targets expressed in cell culture via luminescence using the Nano-Glo HiBiT Lytic Detection System, which uses a split complementation assay format to reconstitute NanoBiT enzyme to generate a luminescent signal. A protein abundance assay was developed such that endogenous protein targets could be modified with the HiBiT peptide tag and their abundance could be assessed after compound treatment. Briefly, K562 cell lines containing a HiBiT-modification were treated with various compounds described herein (e.g., compounds of Formulas (I), (II), or (III)). After treatment for 24 hours, the protein abundance of a specific target was determined by measuring luminescence. • Promega Nano-Glo HiBiT Lytic Detection System (cat #N3030) • Corning 384-well TC-treated microplates (cat #3570) • Synthego Engineered Cells Knock-In Clones [table] Cells were maintained in IMDM with 10% FBS. Before the assay, cells were diluted with phenolphthalein-free growth media (IMDM+1% FBS media) and were seeded in a 384-well plate at a density of 10000 cells/well (for each cell line listed in Table 6). Each compound was prepared as a 10-point 3-fold serial dilution in DMSO with the top dose at a final concentration of 10 μM in the well. Unmodified K562 cells were added at the previously specified density with DMSO to serve as an assay baseline and positive control (PC) and DMSO only with the respective modified cell lines was added to the negative control (NC) columns. Final DMSO concentration was kept at or below 0.25%. Treated cell plates were placed in an incubator at 37° C. with 5% CO2 for 24 hours. After 24 hours, 25 μL of Complete HiBit Lytic reagent was added to each well at room temperature (e.g. one plate requiring 10 mL Lytic Buffer, 100 μL LgBiT Protein, 200 μL Lytic Substrate), shaken for 5 minutes at 600 RPM, then left to sit for 10 minutes for signal to stabilize before reading on a Spark Cyto plate reader (Tecan) with a 500 ms measurement time. To determine compound effects on protein abundance of each target in Table 6, the percent response for each respective cell line was calculated at each compound concentration as follows: For the normalized response at each concentration, a four-parameter logistical regression was fit to the data and the response was interpolated at the 50% value to determine a concentration for protein abundance at 50% (IC50) the untreated control.

[2] = system: HiBiT-tagged HTT protein in K562 cells; assay: HiBit protein abundance assay, HTT; type: cell-based, human; settings: K562 HiBiT-modified cells, 24 hours, luminescence
Procedure: as §1

HTT mRNA = assay: RT-qPCR splicing assay, HTT canonical (CJ) and alternative (AJ) junction mRNA; type: cell-based; settings: Homo sapiens; for AC50: read-out: HTT AJ AC50; for IC50: read-out: HTT CJ IC50
Method in brief: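 Splice-junction mRNAs (CJ, AJ) measured by TaqMan one-step RT-qPCR on cell lysates, using PPIA as reference for adherent A673 and GAPDH or GUSB for K562. Cells exposed for 24 h to 11 threefold concentrations up to 10 uM final, with DMSO at or below 0.25%.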

[3] = decrease in CJ mRNA levels, larger panel of genes, Table 3
[4] = decrease in canonical junction mRNA, A673 or K562 cells, 24 hours treatment, Table 2
[5] = increase in alternative junction mRNA, A673 or K562 cells, 24 hours treatment, Table 2

Structure (SMILES)	IC50 [1] [µM]	IC50 [2] [µM]	AC50 (HTT mRNA; 24 h) [µM]	IC50 (HTT mRNA; 24 h) [µM]	IC50 (HTT mRNA) [µM]	IC50 (HTT mRNA; [3]) [µM]	IC50 (HTT mRNA; [4]) [µM]	AC50 (HTT mRNA; [5]) [µM]
Cc1cn2nc(-c3cc(F)c4nn(C5CCN(C6CCC6)C6(CC6)C5)cc4c3)cc(C)c2n1 (stereo not drawn) [Compound 186, 6-[2-(4-cyclobutyl-4-azaspiro[2.5]octan-7-yl)-7-fluoro-indazol-5-yl]-2,8-dimethyl-imidazo[1,2-b]pyridazine]	0.1 to 1	< 0.1	< 0.1	< 0.1	< 0.1			
Cn1cc2cc(-c3cc(Cl)c4nn(C5CCNCC5)cc4n3)c(O)cc2n1 [Compound 141]	> 10	> 10				> 10	> 10	> 10
COc1cc(-c2cc(C)c3nc(C)cn3n2)cc2cn(C3CCNCC3)nc12 [Compound 155, 6-(7-methoxy-2-(piperidin-4-yl)-2H-indazol-5-yl)-2,8-dimethylimidazo [1,2-b]pyridazine]	0.1 to 1	< 0.1				< 0.1	< 0.1	0.1 to 1
Cn1cc2cc(-c3ccc4nn(C5CCNCC5)cc4c3)cc(F)c2n1 [Compound 105, 7-fluoro-2-methyl-5-[2-(4-piperidyl)indazol-5-yl]indazole]	0.1 to 1	0.1 to 1				0.1 to 1	0.1 to 1	0.1 to 1
Cc1cn2nc(-c3ccc4nn(C5CCNCC5)cc4n3)cc(C)c2n1 [Compound 138, 2,8-dimethyl-6-[2-(4-piperidyl)pyrazolo[4,3-b]pyridin-5-yl]imidazo[1,2-b]pyridazine]	0.1 to 1	0.1 to 1				< 0.1	< 0.1	0.1 to 1
Cc1ccc2nc(-c3cc(F)c4nn(C5CCNCC5)cc4c3)ccc2n1 [Compound 157, 2-[7-fluoro-2-(4-piperidyl)indazol-5-yl]-6-methyl-1,5-naphthyridine]	1 to 10	1 to 10				> 10	> 10	> 10
Cc1cn2nc(-c3cc(F)c4nn(C5CCNCC5F)cc4c3)cc(C)c2n1 (stereo not drawn) [Compound 166, 6-[7-fluoro-2-(3-fluoro-4-piperidyl)indazol-5-yl]-2,8-dimethyl-imidazo [1,2-b]pyridazine]	0.1 to 1	< 0.1				< 0.1	< 0.1	< 0.1
Cn1cc2cc(-c3cc(F)c4nn(C5CCNCC5)nc4c3)cc(F)c2n1 [Compound 103, 4-fluoro-6-(7-fluoro-2-methyl-indazol-5-yl)-2-(4-piperidyl) benzotriazole]	1 to 10	0.1 to 1				0.1 to 1	0.1 to 1	0.1 to 1
COC1=C(C)C2N=C(C)OC2C=C1c1cc(F)c2nn(C3CCNCC3)cc2n1 (stereo not drawn) [Compound 144]	1 to 10	1 to 10				> 10	> 10	> 10
Cc1cn2nc(-c3cc(F)c4nn(C5CCN(CCF)CC5)cc4c3)cc(C)c2n1 [Compound 152]	0.1 to 1	< 0.1				< 0.1	< 0.1	0.1 to 1
Cc1cn2cc(-c3cc(F)c4nn(C5CCNCC5)cc4c3)cc(F)c2n1 [Compound 129, 7-fluoro-5-(8-fluoro-2-methylimidazo[1,2-a]pyridin-6-yl)-2-(piperidin-4-yl)-2H-indazole]	0.1 to 1	< 0.1				< 0.1	< 0.1	< 0.1
Cc1c(O)c(-c2cc(F)c3nn(C4CCNCC4)cc3c2)cc2cn(C)nc12 [Compound 126, 5-[7-fluoro-2-(4-piperidyl)indazol-5-yl]-2,7-dimethyl-indazol-6-ol]	> 10	1 to 10				1 to 10	1 to 10	> 10
